Data reported in paper PMC5765751 (Journal of the American Chemical Society, 2017).

Assay: physchem
Format: physicochemical
Conditions: pH 6

## O=C1NC(Cc2ccc(O)cc2)C(=O)NC1Cc1ccc(O)cc1 (stereo not shown) [cYY, 3,6-bis(4-hydroxybenzyl)piperazine-2,5-dione]
  pKa: 9.9 ± 0.02
